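Grown in 96-well plates, cells were treated for 48 hours with each compound at five concentrations. Insufficient inhibition: endpoint recorded as highest concentration tested. GI50: concentration for 50% inhibition of growth. At the TGI there is no net growth.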
How the values were obtained:
Assay in all cases: NCI anticancer screen, dose series, 48 h
[1] = tested on: ACHN renal
[2] = tested on: MALME-3M melanoma
[3] = tested on: PC-3 prostate
[4] = tested on: HCC-2998 colon
[5] = tested on: NCI-H522 lung
[6] = tested on: SK-MEL-28 melanoma
[7] = tested on: HL-60(TB) leukemia
[8] = tested on: SF-295 CNS
[9] = tested on: HT29 colon
[10] = tested on: IGROV1 ovarian

SMILES | GI50 [1] | TGI [1] | GI50 [2] | TGI [2] | GI50 [3] | TGI [3] | GI50 [4] | TGI [4] | GI50 [5] | TGI [5] | GI50 [6] | TGI [6] | GI50 [7] | TGI [7] | GI50 [8] | TGI [8] | GI50 [9] | TGI [9] | GI50 [10] | TGI [10]
CCN(CC)CCOC(COc1cc(C)cc(C)c1)COc1cc(C)cc(C)c1 | 3.6 µM | 13.8 µM | 1.88 µM | 3.86 µM | 2.6 µM | 10.1 µM | 1.72 µM | 3.5 µM | 4.51 µM | 18.3 µM | 1.84 µM | 3.77 µM | 1.94 µM | 4.48 µM | – | – | – | – | – | –
Cn1cc(-c2cc(-c3cn(C)c4ccccc34)[nH]n2)c2ccccc21 | 7.68 µM | > 100 µM | 93.1 µM | > 100 µM | 8.11 µM | > 100 µM | 4.74 µM | > 100 µM | 22.1 µM | > 100 µM | > 100 µM | > 100 µM | 15.4 µM | 62.8 µM | 17.1 µM | > 100 µM | 5.35 µM | > 100 µM | 8.9 µM | 74.1 µM
COC1C(OC(=O)c2ccc(C)[nH]2)C(O)C(Oc2ccc3c(O)c(NC(=O)c4ccc(O)c(CC=C(C)C)c4)c(=O)oc3c2Cl)OC1(C)C (centres undefined) | – | 77.5 µM | – | 34 µM | – | 29.3 µM | – | 33.2 µM | – | 29.8 µM | – | 32.9 µM | – | > 100 µM | – | 43.4 µM | – | 29.7 µM | – | 39.2 µM
CN1CCCCC1CCN1c2ccccc2Sc2ccc(Br)cc21 (centres undefined) | 3.54 µM | 11.9 µM | 2.08 µM | 4 µM | 2.81 µM | 8.76 µM | 1.97 µM | 4.11 µM | 1.73 µM | 3.49 µM | 2.04 µM | 4.37 µM | 2.06 µM | 4.65 µM | 2.13 µM | 4.94 µM | 2.51 µM | 6.92 µM | 2.37 µM | 6.37 µM
CC(=O)ON(OCc1ccc2ccccc2c1)C(C)=O | > 100 µM | > 100 µM | > 100 µM | > 100 µM | > 100 µM | > 100 µM | > 100 µM | > 100 µM | > 100 µM | > 100 µM | > 100 µM | > 100 µM | > 100 µM | > 100 µM | > 100 µM | > 100 µM | > 100 µM | > 100 µM | > 100 µM | > 100 µM
S=c1ssnc1-c1cc2ccccc2o1 | 15.2 µM | 38.8 µM | 20.7 µM | 46.8 µM | 3.82 µM | 24.2 µM | 16.4 µM | 34.4 µM | 20.7 µM | 45.9 µM | 15.1 µM | 30 µM | 14 µM | > 100 µM | 14.3 µM | 33.8 µM | 14.3 µM | 29.3 µM | 4.09 µM | 29 µM
CC1(C)N=C(N)N=C(N)N1c1ccc(CCCC(=O)Nc2ccc(S(=O)(=O)F)cc2)cc1 | 58.7 µM | > 100 µM | 24.2 µM | > 100 µM | 0.469 µM | > 100 µM | 14.5 µM | > 100 µM | 8.4 µM | > 100 µM | 16 µM | > 100 µM | 3.47 µM | > 100 µM | 38.6 µM | > 100 µM | 2.9 µM | > 100 µM | 0.57 µM | > 100 µM
